Read-outs that look alike come from different tables or passages of the source.
What was measured:
Assay type in all cases: cell-based
[1] = test system: renal carcinoma cells (786-O); test: In vitro potency (CellTiter-Glo, 96 h) on 786-O; details: Homo sapiens, 786-0, 96 h, read-out: 786-O IC50
Method in brief: (§1)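 […] are titrated onto log-phase cells pre-seeded for 24 h in RPMI 1640 supplemented with 20% FBS. Growth inhibition comes from luminescence.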

[2] = test system: Hodgkin's lymphoma cells (L540cy); test: In vitro potency (CellTiter-Glo, 96 h) on L540cy; details: L540cy, 96 h, read-out: L540cy IC50
Method in brief: as §1

[3] = test system: pancreatic cancer cells (BxPC3); test: In vitro potency (CellTiter-Glo, 96 h) on BxPC3; details: Homo sapiens, BXPC-3, 96 h, read-out: BxPC3 IC50
Method in brief: as §1

[4] = test system: anaplastic large cell lymphoma cells (DELBVR); test: In vitro potency (CellTiter-Glo, 96 h) on DELBVR; details: 96 h, read-out: DELBVR IC50
Method in brief: as §1

[5] = test system: acute myeloid leukemia cells (MOLM-13); test: In vitro potency (CellTiter-Glo, 96 h) on MOLM-13; details: Homo sapiens, MOLM-13, 96 h, read-out: MOLM-13 IC50
Method in brief: as §1

[6] = test system: anaplastic large cell lymphoma cells (DEL); test: In vitro potency (CellTiter-Glo, 96 h) on DEL; details: 96 h, read-out: DEL IC50
Method in brief: as §1

[7] = test system: breast cancer cells (MDA-MB-231); test: In vitro potency (CellTiter-Glo, 96 h) on MDA-MB-231; details: Homo sapiens, MDA-MB-231, 96 h, read-out: MDAMB 231 IC50
Method in brief: as §1

[8] = test system: B-lymphocyte cancer cells (SU-DHL4); test: In vitro potency (CellTiter-Glo, 96 h) on SU-DHL4; details: Homo sapiens, SU-DHL-4, 96 h, read-out: SU-DHL-4 IC50
Method in brief: as §1

melanoma cells (A2058) = test: In vitro potency (CellTiter-Glo, 96 h) on A2058; details: Homo sapiens, A2058, 96 h, read-out: A2058 IC50
Description: (§2) In vitro potency was assessed on multiple cancer cell lines. All cell lines were authenticated by STR profiling at IDEXX Bioresearch and cultured for no more than 2 months after resuscitation. Cells cultured in log-phase growth were seeded for 24 hours in 96-well plates containing […] RPMI 1640 supplemented with 20% FBS. Serial dilutions of antibody-drug conjugates in cell culture media were prepared at 4x working concentrations, and 50 μL of each dilution was added to the 96-well plates. Following addition of test articles, cells were incubated with test articles for 4 days at […]. After 96 hours, growth inhibition was assessed by CellTiterGlo® (Promega, Madison, WI) and luminescence was measured on a plate reader.
(§3) Cell viability was determined by CellTiter-Glo staining after 96h exposure to ADC. ND=Not Determined. In the following tables, “Ex_” refers to a drug linker number. For example, “Ag4-Ex_4a” refers to a conjugate of an Ag4 antibody with drug linker 4a.

[9] = test system: non-small-cell lung cancer cells (Calu1); test: In vitro potency (CellTiter-Glo, 96 h) on Calu1; details: Homo sapiens, Calu-1, 96 h, read-out: Calu1 IC50
Description: as §2, §3

[10] = test system: anaplastic large cell lymphoma cells (Karpas299); test: In vitro potency (CellTiter-Glo, 96 h) on Karpas299; details: Homo sapiens, KARPAS-299, 96 h, read-out: Karpas299 IC50
Method in brief: as §1

[11] = In vitro potency (CellTiter-Glo, 96 h) on Ls174T; details: Homo sapiens, LS174T, read-out: Ls174T IC50
Method in brief: as §1

[12] = CPT free drugs, CellTiter-Glo after 96 h exposure

Structure (SMILES)	IC50 [1, 12]	IC50 [2, 12]	IC50 [3, 12]	IC50 [4, 12]	IC50 [5, 12]	IC50 [6, 12]	IC50 [7, 12]	IC50 [8, 12]	IC50 (melanoma cells (A2058); [12])	IC50 [9, 12]	IC50 [10, 12]	IC50 [11, 12]	also measured
CC[C@@]1(O)C(=O)OCc2c1cc1n(c2=O)Cc2c-1nc1cccc(OC)c1c2CN [Compound 5a]	56 nM	20 nM	154 nM	10 nM	73 nM	7 nM	350 nM	12 nM	16 nM	389 nM	28 nM	> 1000 nM	–
CC[C@@]1(O)C(=O)OCc2c1cc1n(c2=O)Cc2c-1nc1cc3c(cc1c2CN)CCO3 [Compound 2n, (5S)-14-(aminomethyl)-5-ethyl-5-hydroxy-7,20-dioxa-11,24-diazahexacyclo[11.11.0.02,11.04,9.015,23.017,21]tetracosa-1(24),2,4(9),13,15(23),16,21-heptaene-6,10-dione;2,2,2-trifluoroacetic acid]	–	–	–	–	–	–	–	–	–	–	–	–	IC50 [1]: 5 nM; IC50 [2]: 2 nM; IC50 [3]: 3 nM; IC50 [4]: 1 nM; IC50 [5]: 29 nM; IC50 [6]: 1 nM; IC50 [7]: 8 nM; IC50 [8]: 1 nM; IC50 (melanoma cells (A2058)): 3 nM; IC50 [9]: 18 nM; IC50 [10]: 5 nM; IC50 ([11]; 96 h): 4 nM
CC[C@@]1(O)C(=O)OCc2c1cc1n(c2=O)Cc2c-1nc1cc(F)cc(Br)c1c2CN [Compound 2aw]	58 nM	25 nM	149 nM	15 nM	199 nM	15 nM	456 nM	22 nM	18 nM	269 nM	36 nM	> 1000 nM	–
CCc1c(C)c(F)cc2nc3c(c(CN)c12)Cn1c-3cc2c(c1=O)COC(=O)[C@]2(O)CC [Compound 10, (S)-11-(aminomethyl)-4,10-diethyl-8-fluoro-4-hydroxy-9-methyl-1,12-dihydro-14H-pyrano[3′,4′:6,7]indolizino[1,2-b]quinoline-3,14(4H)-dione]	–	–	–	–	–	–	–	–	–	–	–	–	IC50 [1]: 54 nM; IC50 [2]: 51 nM; IC50 [3]: 64 nM; IC50 [4]: 15 nM; IC50 [5]: 149 nM; IC50 [6]: 7 nM; IC50 [7]: 59 nM; IC50 [8]: 15 nM; IC50 (melanoma cells (A2058)): 33 nM; IC50 [9]: 95 nM; IC50 [10]: 57 nM; IC50 ([11]; 96 h): 33 nM
CC[C@@]1(O)C(=O)OCc2c1cc1n(c2=O)Cc2c-1nc1cc(F)c(C)c(-c3ccc(O)cc3)c1c2CN [Compound 6f]	97 nM	23 nM	46 nM	8 nM	51 nM	9 nM	139 nM	19 nM	17 nM	294 nM	59 nM	> 1000 nM	–
CC[C@@]1(O)C(=O)OCc2c1cc1n(c2=O)Cc2c-1nc1cc3c(c(F)c1c2CN)CCC3 [Compound 5b]	69 nM	10 nM	128 nM	15 nM	> 1000 nM	17 nM	36 nM	27 nM	17 nM	54 nM	46 nM	45 nM	–
CC[C@@]1(O)C(=O)OCc2c1cc1n(c2=O)Cc2c-1nc1cc(F)c(C)c(C3=CCN(C)CC3)c1c2CN [Compound 6l]	38 nM	20 nM	51 nM	15 nM	16 nM	6 nM	177 nM	18 nM	16 nM	73 nM	25 nM	29 nM	–
CC[C@@]1(O)C(=O)OCc2c1cc1n(c2=O)Cc2c-1nc1ccc(SC)c(F)c1c2CN [Compound 2au]	4 nM	1 nM	6 nM	1 nM	40 nM	1 nM	1 nM	2 nM	3 nM	7 nM	5 nM	2 nM	–
CC[C@@]1(O)C(=O)OCc2c1cc1n(c2=O)Cc2c-1nc1cc3c(cc1c2Cn1cnc(CO)c1)OCO3 [Compound 7aj]	–	–	–	–	–	–	–	–	–	–	–	–	IC50 [1]: 99 nM; IC50 [2]: 56 nM; IC50 [3]: 103 nM; IC50 [4]: 16 nM; IC50 [5]: 81 nM; IC50 [6]: 14 nM; IC50 [7]: 706 nM; IC50 [8]: 34 nM; IC50 (melanoma cells (A2058)): 57 nM; IC50 [9]: > 1000 nM; IC50 [10]: 55 nM; IC50 ([11]; 96 h): 64 nM
CC[C@@]1(O)C(=O)OCc2c1cc1n(c2=O)Cc2c-1nc1cc(F)c(C)c(C3=CCOCC3)c1c2CN [Compound 6h]	36 nM	19 nM	100 nM	7 nM	31 nM	6 nM	102 nM	14 nM	20 nM	155 nM	28 nM	48 nM	–
CC[C@@]1(O)C(=O)OCc2c1cc1n(c2=O)Cc2c-1nc1cc3c(cc1c2CN)CCS3 [Compound 2ar]	26 nM	4 nM	43 nM	5 nM	258 nM	7 nM	14 nM	13 nM	7 nM	26 nM	29 nM	14 nM	–
CC[C@@]1(O)C(=O)OCc2c1cc1n(c2=O)Cc2c-1nc1cc(F)c(C)c(-c3ccccc3)c1c2CN [Compound 6j]	12 nM	9 nM	30 nM	5 nM	15 nM	4 nM	103 nM	14 nM	10 nM	36 nM	9 nM	12 nM	–
CC[C@@]1(O)C(=O)OCc2c1cc1n(c2=O)Cc2c-1nc1ccc3c(c1c2CN)SCC3 [Compound 2av]	22 nM	5 nM	34 nM	4 nM	236 nM	5 nM	9 nM	8 nM	4 nM	25 nM	26 nM	11 nM	–
CC[C@@]1(O)C(=O)OCc2c1cc1n(c2=O)Cc2c-1nc1cc(F)c(C)c(-c3cccc(O)c3)c1c2CN [Compound 6i]	5 nM	3 nM	10 nM	1 nM	2 nM	1 nM	11 nM	2 nM	2 nM	26 nM	4 nM	10 nM	–
CC[C@@]1(O)C(=O)OCc2c1cc1n(c2=O)Cc2c-1nc1cc3c(cc1c2CO)CCO3 [Compound 35]	–	–	–	–	–	–	–	–	–	–	–	–	IC50 [1]: 4 nM; IC50 [2]: 2 nM; IC50 [3]: 6 nM; IC50 [4]: 1 nM; IC50 [5]: 22 nM; IC50 [6]: 0.6 nM; IC50 [7]: 5 nM; IC50 [8]: 1 nM; IC50 (melanoma cells (A2058)): 2 nM; IC50 [9]: 9 nM; IC50 [10]: 4 nM; IC50 ([11]; 96 h): 3 nM
